Data: ChEMBL document CHEMBL3988442, “University of Dundee, Small-Polar-MMV Screening Library” (2021)

Key:
[1] = microbe, parasite or virus in culture; conditions: Mycobacterium tuberculosis, 96 h, read-out: pIC50 (converted)
[2] = microbe, parasite or virus in culture; conditions: Mycobacterium tuberculosis, 72 h, read-out: pIC50 (converted)

SMILES	IC50 [1] [µM]	IC50 [2] [µM]
COCCC(=O)N1CCN(CC2CC2)c2ccccc21	> 50.1	11.7
CN(CCn1cccn1)c1cc(Br)ccn1	366	190
Cc1ccc(C(N)=O)cc1NCC(C)C	> 501	> 501
NCc1nc(-c2cccc(C(F)(F)F)c2)no1	130	262
CC1(C)CNCCC(=O)C1	246	259
CC(CCc1ccc(O)cc1)NC1(CO)CC1 (stereo not drawn)	> 501	199
CN(C)CCN(C)c1ccc(-c2nc(COc3ccccc3)no2)cn1	14.4	48.4
Cc1csc(N2CCN(C(=O)c3ccc(C)s3)CC2)n1	15.5	> 50.1
O=C(NCC(F)(F)F)C1CN(C(=O)c2cnccn2)C1	> 50.1	> 50.1
N#Cc1ccc(NC(=O)Cn2ccnc2)cc1	> 501	> 501
Cc1cccc(OCC(O)CN)c1 (stereo not drawn)	345	179
CCCOCCNC(=O)c1cc(C(F)(F)F)n[nH]1	43.8	54.8
CS(=O)(=O)Nc1cccc(C(=O)Nc2ccccc2)c1	267	130
CCNc1ccnc(C(=O)NCc2ccccc2)c1	148	169
CC(=O)N1CCC[C@H]1C(=O)NCCc1csc(C)n1	> 501	> 501
NCCOc1ccc2ccccc2n1	> 501	244
Cc1cc(NC(=O)Cc2ccc3c(c2)OCCO3)no1	> 501	271
CCc1ccc(C(=O)CSc2nnc(N)[nH]2)cc1	449	176
NC(=O)CC1CCN(C(=O)Cc2ccc(Cl)cc2)CC1	> 501	> 501
NCc1ccnc(OCC(F)(F)F)c1	88.7	50
CCn1ccnc1CN1CCCC1Cn1cc(C)cn1 (stereo not drawn)	> 50.1	46.3
CSCc1ccc(C(=O)N2CC(CC(N)=O)C2)cc1	> 501	> 501
Cc1nc(Nc2ncccn2)cc(C2CN(C(=O)c3cccnc3)C2)n1	> 50.1	> 50.1
COCCC(C)NC(=O)Nc1ccc(N2CCOC2=O)c(OC)c1 (stereo not drawn)	> 50.1	> 50.1
COc1ccc(OCCSCC(=O)NCCC#N)cc1	288	195
Cc1cc(C(=O)NCCCN(C)CC(F)(F)F)no1	> 501	> 501

SMILES	IC50 [1] [µM]	IC50 [2] [µM]
CN(Cc1ccccc1)CC1(O)CCCN(CCC2CCCCC2)C1=O (stereo not drawn)	> 50.1	> 50.1
CC1Cc2ccccc2N1CCN (stereo not drawn)	204	172
CC(C)(C)OC(=O)N1CCCC1CN (stereo not drawn)	207	368
O=C(COC(=O)c1ccccn1)Nc1ccccc1	> 501	234
CN(C)CCCN1CC2(CCN(C3CCCOC3)CC2)OC1=O (stereo not drawn)	> 50.1	> 50.1
CC(C)c1cc(N(C)Cc2noc(C3CCCC3)n2)n2nccc2n1	15.5	9.63
O=C(CCC(=O)c1ccc(F)cc1)NCc1ccco1	> 501	219
COc1cccc(CNc2nc(C)no2)c1	> 501	180
O=S(=O)(NCCNc1ccc(-n2cccc2)nn1)c1ccccc1	16.5	15.5
CCC(CO)NC(=O)C1(c2ccc(F)cc2F)CCC1 (stereo not drawn)	> 501	313
Cc1nc(NCCSc2cnn[nH]2)c2c(C)noc2n1	> 50.1	> 50.1
COCc1ccc(SCC(=O)N(C)C)cc1	> 501	> 501
COc1ccc(CCCC(=O)N2CCC(CN)C2)cc1 (stereo not drawn)	> 501	230
COCCNc1ccc(C#N)cc1	280	> 501
CCN1CCN(C(=O)C2CCCOC2)c2ccccc21 (stereo not drawn)	276	158
CC(C)Nc1cc(Cl)ccc1OCCS(C)(=O)=O	222	191
COc1cccc(C(=O)Nc2ccnn2C(C)C)c1	> 501	259
CCCN(CCC(=O)NC(=O)NC)CC1CCCCO1 (stereo not drawn)	240	93.8
CC(C)(C)OC(=O)NC1CC2(CNC2)C1	> 501	244
COc1ccccc1N1CCC(N)C1 (stereo not drawn)	64.3	30.5
COc1cccc2c1CCCCN2C(=O)c1oc(C)nc1C	> 50.1	> 50.1
NC(=O)COc1cc(Cl)cc(Cl)c1	278	246
CCc1nc(CN(C)C2CCN(CCC(=O)N3CCCCC3)C2)no1 (stereo not drawn)	> 50.1	> 50.1
CCc1ccc(CNc2ccc(CO)cn2)cc1	356	160
O=C(Oc1nsnc1N1CCCCC1)N1CCOCC1	432	168
COc1ccc(-c2noc(C(C)n3ccnc3)n2)cn1 (stereo not drawn)	442	300

SMILES	IC50 [1] [µM]	IC50 [2] [µM]
O=C(CCCc1ccccc1)NCc1ccccn1	234	168
Cn1cc(CN2CC[C@@H]3[C@@H](CCC(=O)N3CCC3=CCCCC3)C2)cn1	> 50.1	> 50.1
CN(C)c1ncnc2c1CCN(c1cccc(F)c1)CC2	> 50.1	> 50.1
CCOc1cccc(Cn2cnc(CC)cc2=O)n1	> 501	> 501
COc1ccc(N2CCCNCC2)cc1	276	308
Cc1nc(O)cc(CCNC(=O)C2CC(=O)N(CC(C)C)C2)n1 (stereo not drawn)	> 50.1	> 50.1
COc1ccc(C(=O)N(C)CCn2cccn2)cc1	> 501	> 501
CC1(C)CN(C(=O)c2cc(Br)c[nH]2)CCO1	290	136
N#Cc1ccc(OCC(=O)Nc2ccccn2)cc1	> 501	247
Cc1nsc(C(=O)NCCCc2ccccc2)n1	47.1	> 50.1
CN(CCS(=O)(=O)c1cc(Cl)ccc1Cl)CC(N)=O	> 50.1	24.7
COc1ccc(F)c(CN2CCCC3(CCN(C4CCOCC4)C3)C2)c1 (stereo not drawn)	25.1	16.7
Cc1cc(C[C@@H]2COC[C@H]2NCc2ccc(C(C)C)cc2)on1	11.5	34.6
CCCn1nnnc1NCc1ccsc1	132	171
O=C(c1cccs1)N1CCC2(CC1)CN(c1ccsc1)C(=O)CO2	> 50.1	> 50.1
O=C1NCC(C(=O)NCCCc2ccc(Cl)cc2)N1 (stereo not drawn)	> 501	> 501
O=C(NCCc1ccc(F)c(F)c1)N1CCCC(O)C1 (stereo not drawn)	> 501	> 501
CCOCC(=O)NCC(Cc1cccc(F)c1)n1cccc1 (stereo not drawn)	11.7	10.4
O=C(c1cnsn1)N1CCCSc2ccc(F)cc21	164	200
Cc1nc(-c2ccc(NCCc3ccc(O)cc3)nc2)[nH]c(=O)c1C	32.1	42.1
O=C(Cn1cnnn1)Nc1ccc(SC(F)F)cc1	290	180
O=C(NCc1ccc2c(c1)OCO2)Nc1nccs1	> 501	> 501
O=C(NCc1[nH]ncc1Br)Nc1nc2c(s1)COCC2	> 501	328
O=C(NCC(CO)Cc1ccc(Cl)cc1)c1ccncc1Cl (stereo not drawn)	> 50.1	> 50.1
N[C@H]1CCN(S(=O)(=O)c2ccc(F)c(C(F)(F)F)c2)C1	171	100
CN(C)c1ccc(C(=O)N(C)C2(C#N)CCC2)cc1F	> 501	> 501

SMILES	IC50 [1] [µM]	IC50 [2] [µM]
Cc1ccc2nc(C3CCCN3Cc3nnc(C)s3)[nH]c2c1 (stereo not drawn)	> 50.1	> 50.1
COCCC(=O)NCC(C)c1ccc(F)c(F)c1 (stereo not drawn)	> 501	> 501
CC(NCc1ccc(OCC(N)=O)cc1)c1ccc(Cl)cc1Cl (stereo not drawn)	18.8	49
COc1ccc(C(=O)NC2COc3ccccc3C2)cc1OCC(=O)O (stereo not drawn)	26	> 50.1
CNC(=O)CNC(=O)c1cc2ccccc2cc1OC	> 501	> 501
COCCNC(=O)COc1ccc2c(c1)OCO2	62.9	128
CN(C)S(=O)(=O)c1cc2c(cc1Cl)OCCO2	> 501	209
CCN(CC)C(=O)CN1CCC2(C=Cc3cc(Cl)c(C)cc3O2)CC1	> 50.1	31.4
Cn1c(C2CC2)nc2c1CCN(Cc1nc(-c3ccsc3)no1)C2	> 50.1	16.2
O=C(CNC1CC1)NC[C@H]1CCc2ccccc2O1	156	130
CC(C)COc1cncc(N(C)C2CCN(c3ncccn3)CC2)n1	40.6	30
COC(=O)CNC(=O)c1ccc(C)c(-n2cccc2)c1	> 501	> 501
OCCNCCNCc1cccc(Cl)c1Cl	33.1	199
OCCCn1nnc(-c2ccccc2)n1	120	158
CN(Cc1cccc(F)c1)C(=O)c1cnccn1	> 501	> 501
COc1cccc(S(=O)(=O)CCN2CCN(C)CC2)c1	> 501	> 501
CN(Cc1cnn(C)c1)C(=O)c1ccc(=O)n(C)n1	> 50.1	> 50.1
CNC(=O)C1CCN(C(=O)CCc2cccs2)CC1	111	38.8
Cn1ccnc1CN1CCC2(CC(=O)N(c3cncnc3)C2)C1 (stereo not drawn)	> 50.1	> 50.1
COc1ccc(F)c(-c2cc(C(=O)NC3CC3)ccn2)c1	10.6	22.7
CCCc1cc(C(=O)N2CCCN(C)CC2)cs1	> 501	> 501
COc1cccc(CN2CCC(CO)(Cc3ccc(Cl)cc3)CC2)c1O	26.1	29.4
CC1CCN(C(=O)C(C)Oc2ccc3c(c2)OCO3)CC1 (stereo not drawn)	38.9	30.1
Cc1ccccc1N1CCN(c2cc(N(C)C)ncn2)C(C)C1 (stereo not drawn)	> 50.1	> 50.1
CCCn1nnnc1NCc1ccc(C)s1	51.8	64.7
COc1cccc(-c2noc(-c3ccc(NCCCO)nc3)n2)c1OC	21.2	> 50.1
